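These data come from cells grown in 96-well plates and exposed to compound for 48 hours at five concentrations. TGI: total growth inhibition.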

Common to all, as to test: growth of human tumour cells (NCI), 48 h
Test [1] concerns 786-0 renal.
The test system of test [2] is ACHN renal.
The subject of test [3] is BT-549 breast.
Test [4] deals with CCRF-CEM leukemia.
The test system of test [5] is HOP-62 NSCLC.
For test [6], the system named is HOP-92 NSCLC.
In test [7] the test system is HT29 colon.
Test [8] relates to MDA-N.
Test [9] has as its system OVCAR-3 ovarian.
Test [10] has as its system SF-295 CNS.
Test [11] has as its system SN12C renal.

For the molecule `c1ccc2c3c(ccc2c1)CSCc1ccc2ccccc2c1-3`, the TGI in test [1], in test [2], in test [3], in [4], in test [5] and in [6] was greater than 100 µM each time. The TGI in [7], in [8], in test [9], in [10] and in test [11] was greater than 100 µM throughout.

In the case of `CCCCCCCCCCCCOC1C(COCCN2CCCC2)OC2OC(C)(C)OC21` (centres undefined), the TGI in [1] turned out to be 3.08 µM; in test [2] it was 11.2 µM; in test [3], 3.22 µM; in [4] it was 5.39 µM; in test [5] it was 3.2 µM; in [6] it was 2.72 µM. Further, the TGI in test [7] turned out to be 2.98 µM; in test [8] it was 2.76 µM; in test [9], 3.05 µM; in test [10], 3.28 µM; in test [11], 3.24 µM.

On to `CNc1ccc2nc(-c3ccc(OC(=O)N(C)C)cc3)cn2c1`, for which the TGI in test [1] worked out at 27.6 µM; in test [2], 37.3 µM; in test [3] it was 31.6 µM; in [4], 32.3 µM; in [5], 32.9 µM; in test [6] it was 50 µM. The TGI in test [7] was 34 µM; in [8], 38 µM; in [9], greater than 100 µM; in test [10], 31.5 µM; in test [11] it was 27.2 µM.

As to `COc1ccccc1C(=O)c1c(N2CCCCC2)c(=O)c1=O`, the TGI in test [1], in test [2], in test [3], in [4], in [5] and in test [6] was greater than 100 µM in each case. Also, the TGI in test [7], in [8], in test [9], in test [10] and in [11] was greater than 100 µM in each case.

As to `CC(=O)N[C@@H](Cc1ccc(O)cn1)C(=O)NCc1ccc2c(c1)OCO2`, the TGI in test [1], in [2], in [3], in test [4], in [5] and in test [6] was greater than 100 µM each time. In addition, the TGI in test [7], in [8], in test [9], in [10] and in test [11] was greater than 100 µM throughout.

With `O=C1C/C(=C\O)C(=O)c2ccccc2N1`, the TGI in test [1], in test [2], in [3], in test [4], in test [5] and in test [6] was greater than 100 µM each time. For the same molecule, the TGI in test [7], in test [8], in test [9], in test [10] and in test [11] was greater than 100 µM in each case.

For `CC1=NNC(N)=N/C1=C/C(Sc1ccc(Cl)cc1)c1cccs1` (centres undefined), the TGI is 82.4 µM in test [1]; 42.5 µM in [2]; greater than 100 µM in test [3]; 9.79 µM in test [4]; 28.7 µM in test [5]; greater than 100 µM in test [6]. Besides, the TGI turned out to be 25.4 µM in test [7], 85 µM in test [8], 31.3 µM in test [10] and 99.7 µM in test [11].

Take `O=C1CSC2(CC(/C=C/C=C/c3ccccc3)=NN2c2cccc(S(=O)(=O)O)c2)N1c1nc2ccccc2s1` (centres undefined): the TGI in test [1] was greater than 100 µM; in test [2], greater than 100 µM; in [3], greater than 100 µM; in test [4], 58.4 µM; in test [6], greater than 100 µM; in test [7] it was greater than 100 µM. Also, the TGI in test [8] and in test [11] was greater than 100 µM throughout.

In the case of `Cc1ccc(S(=O)(=O)Nn2c(-c3ccccc3)c(C#N)c(-c3ccc([N+](=O)[O-])cc3)c(C#N)c2=O)cc1`, the TGI in test [1], in test [2], in test [3], in test [4], in [5] and in [6] was greater than 100 µM in each case. For the same molecule, the TGI in [7], in [8], in test [10] and in [11] was greater than 100 µM in each case.

With `Cc1cs/c(=N\C(P(=O)(O)O)P(=O)(O)O)n1C`, the TGI in [1], in [2], in test [3], in test [4], in test [5] and in test [6] was greater than 100 µM throughout. The TGI in test [7], in [8], in test [9] and in [10] was greater than 100 µM throughout.

As for `COc1ccc(CNc2nc(NCc3ccc(OC)cc3)nc(NC3CCCCC3)n2)cc1`, the TGI in test [1] was greater than 100 µM; in test [2], greater than 100 µM; in test [3], 37.9 µM; in [5], greater than 100 µM; in test [6], greater than 100 µM; in test [7] it was greater than 100 µM. Also, the TGI was greater than 100 µM in test [8], 6.24 µM in [9], 4.14 µM in [10] and greater than 100 µM in test [11].

`O=[N+]([O-])c1ccc2nc3ccc([N+](=O)[O-])cn3c2c1`: the TGI in [1] is greater than 100 µM; in test [2] it was greater than 100 µM; in test [3] it was greater than 100 µM; in test [4], greater than 100 µM; in test [5], 39.1 µM; in test [6], greater than 100 µM. The TGI in [7], in [8], in test [10] and in test [11] was greater than 100 µM each time.

The values above are taken from PubChem BioAssay (NCI).
